Here are results for seven molecules from patent publication US10487087B2, “Positive allosteric modulators of the GLP-1 receptor” (Vanderbilt University, priority 2015, dated 2019).

Format in all cases: cell-based
For experiment [1], the target named is T1, human GLP-1R (Homo sapiens (Human), UniProt P43220). As to the kind of experiment: GLP-1 assay with GLP1 endogenous agonist (calcium mobilization, EC20 GLP-1 peptide 7-36 amide). Conditions: calcium flux; for Emax at 30 µM: 30 μM compound, EC20 of GLP-1 7-36 amide; for EC50: potentiation of EC20 GLP-1 7-36 amide. From the text: A. GLP-1 Assay with GLP1 Endogenous Agonist
(§1) To assess the effects of test compounds on GLP-1 or glucagon potency and efficacy, a high-throughput calcium mobilization assay was used essentially as previously described (Morris L C, Days E L, Turney M, Mi D, Lindsley C W, Weaver C D, Niswender K D, A Duplexed High-Throughput Screen to Identify Allosteric Modulators of the Glucagon-Like Peptide 1 and Glucagon Receptors. J. Biomol. Screen. 2014 Feb. 13, 19(6):847-858). Briefly, human GLP-1R or Glucagon Receptor 9-3-H cells over-expressing a promiscuous G-protein (Millipore, Billerica, Mass.) were plated at 15,000 cells/well in black-walled 384-well plates (Greiner Bio-one, Monroe, N.C.) in Dulbecco's Modified Eagles Medium (DMEM) with 10% FCS, 4.0 mM L-glutamine, non-essential amino acids (NEAAs), and 10.0 mM HEPES without antibiotics. After overnight attachment, cells were washed twice with assay buffer (HBSS supplemented with 20 mM HEPES and 1.0 mM probenecid) using an ELx405CW cell washer (Bio-Tek, Winooski, Vt.) and then loaded with the calcium sensitive dye fluo-4 AM (Invitrogen, Grand Island, N.Y.) at a final concentration of 2.0 μM in assay buffer. After a 45-minute incubation at room temperature, the dye was removed by washing, leaving 20 μL of assay buffer. Next, the cell plate was introduced alongside a 384-well compound plate containing 0.1% final DMSO control wells and 11-point concentration response curves of putative GLP-1 PAMs created using a non-pipet based liquid transfer instrument, ECH0555 (Labcyte, Sunnyvale, Calif.). After a 20 μL compound addition to the appropriate wells, kinetic fluorescent measurements were collected for 2 minutes using an FDSS6000 (Hamamatsu, Bridgewater, N.J.) with 488 nm excitation and 480/540 emission filters. After 2 minutes, 10 μL of an EC20 concentration of GLP-1 peptide 7-36 amide (Phoenix Pharmaceuticals, Burlingame, Calif.), Glucagon (Phoenix Pharmaceuticals, Burlingame, Calif.) Exendin-4 (Tocris Bioscience, Bristol, UK), or Liraglutide (Victoza™, Novo-Nordisk, Denmark) was added and fluorescence was monitored for an additional 2 minutes to observe potentiation of the calcium flux signal. […] Recombinant peptides were reconstituted into assay buffer supplemented with 0.1% fatty acid free BSA (Sigma #A6003) and diluted into borosilicate glass tubes to maximize peptide recovery (Goebel-Stengel M, Stengel A, Tache Y, Reeve J R Jr., The importance of using the optimal plasticware and glassware in studies involving peptides. Anal. Biochem. 2011 Jul. 1, 414(1):38-46).
(§2) Data is from a single experiment unless otherwise noted. Data that is an average of two experiments is noted as “n=2” while data that is an average of three or more experiments is presented as the average plus or minus the standard error of the mean.
On the technique in general: A change in cytosolic calcium serves as a functional read-out for many receptors and channels.

For experiment [2], the target named is T1, human GLP-1R. In words: GLP-1 assay with EX-4 synthetic agonist (calcium mobilization, EC20 EX-4). Conditions: calcium flux; for Emax at 30 µM: 30 μM compound, EC20 of EX-4; for EC50: potentiation of EC20 EX-4, read-out: GLP1 EC50 (Ex-4 synthetic agonist).
Excerpt: B. GLP-1 Assay with EX-4 Synthetic Agonist
as §1, with “L-glutamine, 1×” for “L-glutamine,”, “EL×405CW” for “ELx405CW”, “EX-4” for “GLP-1 peptide 7-36 amide”, “Taché” for “Tache”
as §2

For experiment [3], the target named is T1, human GLP-1R. In words: GLP-1 concentration response curves in the presence of fixed concentrations of PAM (GLP-1 induced calcium flux). Conditions: 0 μM, 3 μM, 10 μM, 30 μM of compound; FIGS. 2A and 2B. An excerpt:
FIGS. 2A and 2B show a series of GLP-1 concentration response curves in the presence of fixed concentrations of an exemplary positive allosteric modulator (Compound 1).

T1 sequence (P43220 24-463): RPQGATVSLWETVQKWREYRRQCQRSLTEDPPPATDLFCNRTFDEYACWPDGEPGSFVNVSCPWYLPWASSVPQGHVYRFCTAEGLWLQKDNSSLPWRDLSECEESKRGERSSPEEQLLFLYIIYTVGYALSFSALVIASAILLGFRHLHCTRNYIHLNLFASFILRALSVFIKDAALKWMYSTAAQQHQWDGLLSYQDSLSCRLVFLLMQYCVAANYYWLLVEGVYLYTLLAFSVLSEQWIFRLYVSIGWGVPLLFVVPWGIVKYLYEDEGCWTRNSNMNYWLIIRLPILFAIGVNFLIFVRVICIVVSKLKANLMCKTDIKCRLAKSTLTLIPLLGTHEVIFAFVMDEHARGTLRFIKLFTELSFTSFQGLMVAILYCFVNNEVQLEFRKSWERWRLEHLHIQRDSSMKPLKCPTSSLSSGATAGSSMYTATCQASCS

Regarding `Cc1c2ccccc2n2c(C(=O)NC[C@@H]3CCCN3C(C)C)cn(C3CCCC3)c(=O)c12` [Compound 1, (S)-2-Cyclopentyl-N-((1-isopropylpyrrolidin-2-yl)methyl)-10-methyl-1-oxo-1,2-dihydropyrazino[1,2-a]indole-4-carboxamide], at human GLP-1R [1], the Emax – broadly, the size of the effect at its maximum, as opposed to the concentration needed – at 30 µM worked out at 57% and the EC50 (in general, the concentration giving half of the maximal effect) was determined as 2.7 µM. At human GLP-1R [2], the Emax at 30 µM stood at 59% and the EC50 is 4.6 µM. Moreover, the “shift of GLP-1 concentration response curves / GLP-1 EC50” value on human GLP-1R [3] was “leftward shift in the GLP-1 concentration response curves”.
Regarding `Cc1c2n(c3ccccc13)[C@@H](C(=O)NC[C@@H]1CCCN1C(C)C)CN(C1CCCC1)C2=O` [Compound 8, (R)-2-cyclopentyl-N-(((S)-1-isopropylpyrrolidin-2-yl)methyl)-10-methyl-1-oxo-1,2,3,4-tetrahydropyrazino[1,2-a]indole-4-carboxamide], the Emax at 30 µM on human GLP-1R [1] and at human GLP-1R [2] was 56% throughout. The EC50 on human GLP-1R [1] and at human GLP-1R [2] was 3.6 µM in each case.
For the molecule `Cc1c2n(c3ccccc13)[C@H](C(=O)NC[C@@H]1CCCN1C(C)C)CN(C1CCCC1)C2=O` [Compound 9, (S)-2-cyclopentyl-N-(((S)-1-isopropylpyrrolidin-2-yl)methyl)-10-methyl-1-oxo-1,2,3,4-tetrahydropyrazino[1,2-a]indole-4-carboxamide], at human GLP-1R [1], the Emax at 30 µM stood at 40% and the EC50 was more than 30 µM. At human GLP-1R [2], the Emax at 30 µM was found to be 33% and the half-maximal effective concentration (EC50) is more than 30 µM.
Take `CC(C)N1CCC[C@H]1CNC(=O)c1cn(C2CCCC2)c(=O)c2c(Cl)c3ccccc3n12` [Compound 10, (S)-10-chloro-2-cyclopentyl-N-((1-isopropylpyrrolidin-2-yl)methyl)-1-oxo-1,2-dihydropyrazino[1,2-a]indole-4-carboxamide]: the Emax at 30 µM was found to be 61% on human GLP-1R [1] and 57% at human GLP-1R [2]. The EC50 on human GLP-1R [1] stood at 1.3 µM; at human GLP-1R [2], 1.5 µM.
Consider `CC(C)N1CCC[C@@H]1CNC(=O)c1cn(C2CCCC2)c(=O)c2c(Cl)c3ccccc3n12` [Compound 11, (R)-10-chloro-2-cyclopentyl-N-((1-isopropylpyrrolidin-2-yl)methyl)-1-oxo-1,2-dihydropyrazino[1,2-a]indole-4-carboxamide], for which, on human GLP-1R [1], the Emax at 30 µM came to 44% and the EC50 was more than 30 µM. In addition, the EC50 at human GLP-1R [2] is more than 30 µM.
On to `CC(C)N1CCC[C@H]1CNC(=O)c1cn(C2CCCC2)c(=O)c2c(Br)c3ccccc3n12` [Compound 12, (S)-10-bromo-2-cyclopentyl-N-((1-isopropylpyrrolidin-2-yl)methyl)-1-oxo-1,2-dihydropyrazino[1,2-a]indole-4-carboxamide], for which, at human GLP-1R [1], the Emax at 30 µM was 53% and the EC50 worked out at 2.2 µM. Moreover, on human GLP-1R [2], the Emax at 30 µM came out at 59% and the EC50 was 3.6 µM.
Turning to `CC(C)N1CCC[C@@H]1CNC(=O)c1cn(C2CCCC2)c(=O)c2c(Br)c3ccccc3n12` [Compound 13, (R)-10-bromo-2-cyclopentyl-N-((1-isopropylpyrrolidin-2-yl)methyl)-1-oxo-1,2-dihydropyrazino[1,2-a]indole-4-carboxamide], on human GLP-1R [1], the Emax at 30 µM came to 39% and the EC50 was more than 30 µM. Moreover, the EC50 on human GLP-1R [2] is more than 30 µM.
